How the values were obtained:
in vivo = details: po
[1] = in vivo

| SMILES | LD50 (in vivo) | ORAL LD50 [1] |
| --- | --- | --- |
| CCCCc1cc([N+](=O)[O-])c(O)c([N+](=O)[O-])c1 [DNBP (C4), 2,6dinitro-4-butylphenol] | 30 mg/kg | – |
| CCCCCCCCCc1cc([N+](=O)[O-])c(O)c([N+](=O)[O-])c1 [DNNP (C9), 2,6dinitro-4-nonylphenol] | 50 mg/kg | – |
| CCO [Ethanol] | – | 7,080 mg/kg |
| [Cl-].[Na+] [Sodium Chloride] | – | 3,000 mg/kg |

From US5540861A (priority 1994, dated 1996)
